For 13 compounds, Ki results are on record in US9452980B2, “Substituted benzamides” (Hoffmann-La Roche Inc., priority 2009, dated 2016).

One may read the Ki as a dissociation constant, usually derived from enzyme kinetics or from competition with a known ligand.

Counter-ions that a name gives are not always drawn. Like-named read-outs stand apart in the source and are kept apart here.

One experiment addresses rat TAAR1 (Rattus norvegicus (Rat), UniProt Q923Y9). In words: Radioligand binding assay on rat TAAR1. To be noted: read-out: Ki (μM) rat. In a few lines: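 Membranes from HEK293 cells stably expressing rat TAAR1, with Kd checked per batch by saturation. Competition with ³H-(S)-4-[(ethyl-phenyl-amino)-methyl]-4,5-dihydro-oxazol-2-ylamine, compounds 10 pM–10 μM in duplicate, 1 hr at 4 °C. Filtration then scintillation counting; nonspecific binding defined with 10 μM unlabeled ligand.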

The next experiment has as its target mouse TAAR1 (Mus musculus (Mouse), UniProt Q923Y8). The experiment can be described thus: Radioligand binding assay on mouse TAAR1. To be noted: read-out: Ki (μM) mouse. In outline: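 Membranes were from HEK293 cells stably expressing mouse TAAR1. Compounds from 10 pM to 10 μM, in duplicate, competed with [3H]-(S)-4-[(ethyl-phenyl-amino)-methyl]-4,5-dihydro-oxazol-2-ylamine for 1 h at 4 °C. Nonspecific binding was defined with 10 μM unlabelled ligand, and bound radioactivity was read by filtration and scintillation.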

The mark [1] stands for this setting: rat TAAR1, HEK-293 membranes, second value of cell mouse/rat.
[2] abbreviates: mouse TAAR1, HEK-293 membranes, first value of cell mouse/rat.

mouse TAAR1, sequence (Q923Y8 whole entry): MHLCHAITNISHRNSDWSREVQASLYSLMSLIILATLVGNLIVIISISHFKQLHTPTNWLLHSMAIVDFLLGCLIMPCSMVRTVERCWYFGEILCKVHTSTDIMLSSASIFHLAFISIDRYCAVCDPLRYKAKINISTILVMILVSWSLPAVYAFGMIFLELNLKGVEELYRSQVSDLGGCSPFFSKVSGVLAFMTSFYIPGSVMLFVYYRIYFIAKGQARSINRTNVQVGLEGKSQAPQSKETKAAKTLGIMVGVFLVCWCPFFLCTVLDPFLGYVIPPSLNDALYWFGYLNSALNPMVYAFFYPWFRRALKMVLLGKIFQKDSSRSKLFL
rat TAAR1, sequence (Q923Y9 whole entry): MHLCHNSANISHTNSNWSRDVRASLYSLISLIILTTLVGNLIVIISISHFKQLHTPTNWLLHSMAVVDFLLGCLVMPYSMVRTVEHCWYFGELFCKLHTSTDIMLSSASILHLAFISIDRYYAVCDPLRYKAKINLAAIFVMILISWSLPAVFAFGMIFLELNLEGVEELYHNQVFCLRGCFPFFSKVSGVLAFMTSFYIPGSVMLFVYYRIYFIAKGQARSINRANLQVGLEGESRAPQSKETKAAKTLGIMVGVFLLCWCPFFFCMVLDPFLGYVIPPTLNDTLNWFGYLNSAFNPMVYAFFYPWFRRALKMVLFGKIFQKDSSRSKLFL

Take `O=C(Nc1ccc(C2CNCCO2)cc1)c1cnc(Cl)c(Cl)c1` (racemic) [Example 219, (RS)-5,6-Dichloro-N-(4-(morpholin-2-yl)phenyl)nicotinamide hydrochloride]: the Ki at rat TAAR1 (setting [1]) was 0.0031 µM; at mouse TAAR1 (setting [2]) it was 0.0059 µM.

Turning to `CC(CO)(CCl)COc1ccc(C(=O)Nc2ccc(C3CNCCO3)cc2)cc1` (racemic) [Example 220, (RS)-4-(2-Chloromethyl-3-hydroxy-2-methyl-propoxy)-N-(4-morpholin-2-yl-phenyl)-benzamide], the Ki at rat TAAR1 (setting [1]) came out at 0.0024 µM; on mouse TAAR1 (setting [2]) it was 0.0435 µM.

As for `O=C(Nc1ccc(C2CNCCO2)cc1)c1cc(Cl)nc(Cl)c1` (racemic) [Example 221, (RS)-2,6-Dichloro-N-(4-(morpholin-2-yl)phenyl)isonicotinamide hydrochloride], the Ki at rat TAAR1 stood at 0.0037 µM; at mouse TAAR1, 0.005 µM.

Consider `O=C(Nc1ccc(C2CNCCO2)cc1)c1ccc(OCC(F)(F)F)nc1` (racemic) [Example 222, (RS)—N-(4-(Morpholin-2-yl)phenyl)-6-(2,2,2-trifluoroethoxy)nicotinamide hydrochloride], for which the Ki came to 0.0033 µM at rat TAAR1 and 0.0037 µM on mouse TAAR1.

`CC1(COc2ccc(C(=O)Nc3ccc(C4CNCCO4)cc3)cc2)COC1` (racemic) [Example 228, (RS)-4-((3-Methyloxetan-3-yl)methoxy)-N-(4-(morpholin-2-yl)phenyl)benzamide]: the Ki was determined as 0.0608 µM at rat TAAR1 (setting [1]) and 0.199 µM on mouse TAAR1 (setting [2]).

Turning to `O=C(Nc1ccc(C2CNCCO2)cc1)c1cnc(-c2ccccc2)s1` (racemic) [Example 231, (RS)—N-(4-(Morpholin-2-yl)phenyl)-2-phenylthiazole-5-carboxamide hydrochloride], the Ki on rat TAAR1 (setting [1]) was found to be 0.0014 µM; on mouse TAAR1, 0.0043 µM.

For `O=C(Nc1ccc(C2CNCCO2)cc1)c1ccc(OC2CCOCC2)nc1` (racemic) [Example 232, (RS)—N-(4-(Morpholin-2-yl)phenyl)-6-(tetrahydro-2H-pyran-4-yloxy)nicotinamide hydrochloride], the values for the Ki on rat TAAR1 (setting [1]) and on mouse TAAR1 (setting [2]) were 0.0317 µM and 0.15 µM, respectively.

As for `O=C(Nc1ccc(C2CNCCO2)cc1)c1csc(-c2ccccc2)n1` (racemic) [Example 233, (RS)—N-(4-(Morpholin-2-yl)phenyl)-2-phenylthiazole-4-carboxamide hydrochloride], the Ki at rat TAAR1 (setting [1]) came to 0.0014 µM; on mouse TAAR1 (setting [2]), 0.0008 µM.

`O=C(Nc1ccc(C2CNCCO2)cc1)c1ccc(N2CCOCC2)nc1` (racemic) [Example 241, (RS)—N-(4-(Morpholin-2-yl)phenyl)-6-morpholinonicotinamide hydrochloride]: the figures for the Ki at rat TAAR1 (setting [1]) and at mouse TAAR1 (setting [2]) were 0.116 µM and 1.55 µM, respectively.

For the compound `CCOc1ccc(C(=O)Nc2ccc(C3CNCCO3)cc2)cn1` (racemic) [Example 245, (RS)-6-Ethoxy-N-(4-(morpholin-2-yl)phenyl)nicotinamide hydrochloride], the inhibition constant (Ki) on rat TAAR1 (setting [1]) is 0.0063 µM; at mouse TAAR1 (setting [2]), 0.0649 µM.

Turning to `O=C(Nc1ccc(C2CNCCO2)cc1)c1coc(-c2ccccc2)n1` (racemic) [Example 249, (RS)—N-(4-(Morpholin-2-yl)phenyl)-2-phenyloxazole-4-carboxamide hydrochloride], the Ki on rat TAAR1 (setting [1]) was determined as 0.0024 µM; on mouse TAAR1 (setting [2]), 0.0025 µM.

Regarding `CO[C@H]1CC[C@@H](C(=O)Nc2ccc(C3CNCCO3)cc2)CC1` (mixture of isomers) [Example 254, cis-(RS)-4-Methoxy-N-(4-(morpholin-2-yl)phenyl)cyclohexanecarboxamide hydrochloride], the Ki worked out at 0.726 µM at rat TAAR1 (setting [1]) and 2.82 µM on mouse TAAR1 (setting [2]).

With `CO[C@H]1CC[C@H](C(=O)Nc2ccc(C3CNCCO3)cc2)CC1` (mixture of isomers) [Example 255, trans-(RS)-4-Methoxy-N-(4-(morpholin-2-yl)phenyl)cyclohexanecarboxamide hydrochloride], the figures for the Ki at rat TAAR1 (setting [1]) and at mouse TAAR1 (setting [2]) were 0.428 µM and 5.1 µM, respectively.
